This series is described as follows: Assay (IV) determination of solubility. It is filed as physicochemical. Here is the method:
Assay (IV)—Determination of Solubility
The mimylin peptide was dissolved in water at ˜500 nmol/ml and mixed 1:1 with a series of buffers (100 mM glycylglycine pH 3.0, 100 mM glycylglycine pH 4.0, 100 mM glycylglycine pH 5.0, 100 mM bistrispropane pH 6.0, 100 mM bistrispropane pH 6.5, 100 mM bistrispropane pH 7.0, 100 mM bistrispropane pH 7.5, 100 mM bistrispropane pH 8.0).

Values after ≈ are worked out from the molar mass of the structure shown. Numbered stars: 1 amine (or outer) side, 2 acyl side, 3 side chain; on linkers, the order of the positions; unused ones are H or OH. Peptide text beside a SMILES is read from it. * marks the point of attachment. C20 diacid = O=C(O)CCCCCCCCCCCCCCCCCCC(=O)*; C18 diacid = O=C(O)CCCCCCCCCCCCCCCCC(=O)*; γGlu = O=C(O)[C@H](CCC(=O)[*:2])N[*:1]

With `CC(C)C[C@H](NC(=O)[C@H](CCC(=O)O)NC(=O)[C@H](Cc1cnc[nH]1)NC(=O)[C@H](CC(C)C)NC(=O)[C@H](CCC(=O)O)NC(=O)[C@H](C)NC(=O)[C@H](CO)NC(=O)[C@H](CC(C)C)NC(=O)[C@H](CCCNC(=N)N)NC(=O)CNC(=O)[C@@H](NC(=O)[C@@H](NC(=O)[C@H](C)NC(=O)[C@@H](NC(=O)[C@H](CO)NC(=O)[C@@H](NC(=O)[C@H](CCC(=O)O)NC(=O)[C@H](CO)NC(=O)[C@H](C)NC(=O)CC[C@H](NC(=O)CCCCCCCCCCCCCCCCC(=O)O)C(=O)O)C(C)C)[C@@H](C)O)C(C)C)C(C)C)C(=O)N[C@@H](C)C(=O)N[C@H](C(=O)N[C@@H](CC(C)C)C(=O)N1CCC[C@H]1C(=O)N[C@@H](CCCNC(=N)N)C(=O)N[C@H](C(=O)N[C@@H](CCC(=O)O)C(=O)N[C@H](C(=O)NCC(=O)N[C@@H](CO)C(=O)NCC(=O)N[C@@H](CO)C(=O)N1CCC[C@H]1C(N)=O)[C@@H](C)O)[C@@H](C)O)[C@@H](C)O` [compound 96, [N-terminal(C18 diacid-gGlu), des1, 5V, 9V, 10V, 30S, 31G]mimylin] ({C18 diacid-γGlu}-ASEVSTAVVGRLSAELHELATLPRTETGSGSP-NH2), the Solubility result by setting is: (pH 3.0) “≧200 μM”; (pH 6.0) “≧200 μM”; (pH 6.5) “≧200 μM”; (pH 7.0) “≧200 μM”; (pH 7.5) “≧200 μM”; (pH 8.0) “≧200 μM”. The solubility (as a rule, the dissolved amount per volume that the medium holds) at 18 h reads like this: (pH 4.0) 177 µM (≈ 646 µg/mL); (pH 5.0) 45 µM (≈ 164 µg/mL).

As to `CC(C)C[C@H](NC(=O)CNC(=O)[C@H](CO)NC(=O)[C@H](C)NC(=O)CC[C@H](NC(=O)CCCCCCCCCCCCCCCCCCC(=O)O)C(=O)O)C(=O)N[C@@H](CO)C(=O)N[C@H](C(=O)N[C@@H](C)C(=O)N[C@H](C(=O)N[C@@H](CC(C)C)C(=O)NCC(=O)N[C@@H](CCCNC(=N)N)C(=O)N[C@@H](CC(C)C)C(=O)N[C@@H](CO)C(=O)N[C@@H](CCC(N)=O)C(=O)N[C@@H](CCC(=O)O)C(=O)N[C@@H](CC(C)C)C(=O)N[C@@H](Cc1cnc[nH]1)C(=O)N[C@@H](CCC(=O)O)C(=O)N[C@@H](CC(C)C)C(=O)N[C@@H](CCC(N)=O)C(=O)N[C@H](C(=O)N[C@@H](CC(C)C)C(=O)N[C@@H](CCC(N)=O)C(=O)N[C@H](C(=O)N[C@@H](Cc1ccc(O)cc1)C(=O)N1CCC[C@H]1C(=O)N[C@@H](CCCNC(=N)N)C(=O)N[C@H](C(=O)N[C@@H](CCC(=O)O)C(=O)N[C@H](C(=O)NCC(=O)N[C@@H](CO)C(=O)N[C@@H](CCC(N)=O)C(=O)N[C@H](C(=O)N[C@@H](Cc1ccc(O)cc1)C(N)=O)[C@@H](C)O)[C@@H](C)O)[C@@H](C)O)[C@@H](C)O)[C@@H](C)O)C(C)C)[C@@H](C)O` [compound 130, [N-terminal(C20 diacid-gGlu), des1, 4G, 9V, 15Q, 21Q, 23aQ, 23bT, 23cY, 30S, 31Q, 32T, 33Y]mimylin] ({C20 diacid-γGlu}-ASGLSTAVLGRLSQELHELQTLQTYPRTETGSQTY-NH2), the Solubility entry reads like this: (pH 3.0) “≧200 μM”; (pH 6.0) “≧200 μM”; (pH 6.5) “≧200 μM”; (pH 7.0) “≧200 μM”; (pH 7.5) “≧200 μM”; (pH 8.0) “≧200 μM”. Also, the solubility at 18 h runs as follows: (pH 4.0) 174 µM (≈ 746 µg/mL); (pH 5.0) 9 µM (≈ 38.6 µg/mL).

Regarding `CC(C)C[C@H](NC(=O)[C@H](CCC(=O)O)NC(=O)[C@H](Cc1cnc[nH]1)NC(=O)[C@H](CC(C)C)NC(=O)[C@H](CCC(=O)O)NC(=O)[C@H](C)NC(=O)[C@H](CO)NC(=O)[C@H](CC(C)C)NC(=O)[C@H](CCCNC(=N)N)NC(=O)CNC(=O)[C@H](CC(C)C)NC(=O)[C@@H](NC(=O)[C@H](C)NC(=O)[C@@H](NC(=O)[C@H](CO)NC(=O)[C@H](CC(C)C)NC(=O)[C@@H]1CCCN1C(=O)[C@H](CO)NC(=O)[C@H](C)NC(=O)[C@H](CCC(=O)O)NC(=O)CCCCCCCCCCCCCCCCC(=O)O)[C@@H](C)O)C(C)C)C(=O)N[C@@H](C)C(=O)N[C@H](C(=O)N[C@@H](CC(C)C)C(=O)N1CCC[C@H]1C(=O)N[C@@H](CCCNC(=N)N)C(=O)N[C@H](C(=O)N[C@@H](CCC(=O)O)C(=O)N[C@H](C(=O)NCC(=O)N1CCC[C@H]1C(=O)N[C@@H](CCC(=O)O)C(=O)N[C@@H](CO)C(=O)N1CCC[C@H]1C(N)=O)[C@@H](C)O)[C@@H](C)O)[C@@H](C)O` [compound 30, [N-terminal(C18 diacid), 4P, 9V]mimylin] ({C18 diacid}-EASPLSTAVLGRLSAELHELATLPRTETGPESP-NH2), the Solubility result runs as follows: (pH 3.0) “≧200 μM”; (pH 4.0) “≧200 μM”; (pH 5.0) “≧200 μM”; (pH 6.0) “≧200 μM”; (pH 6.5) “≧200 μM”; (pH 7.0) “≧200 μM”. The Solubility entry is listed as “≧200 μM” (pH 7.5) and “≧200 μM” (pH 8.0).

Take `CC(C)C[C@H](NC(=O)[C@H](C)NC(=O)[C@H](C)NC(=O)[C@@H](NC(=O)[C@H](CO)NC(=O)[C@H](CC(C)C)NC(=O)[C@H](CCC(=O)O)NC(=O)[C@H](CO)NC(=O)[C@H](C)NC(=O)CC[C@H](NC(=O)CCCCCCCCCCCCCCCCCCC(=O)O)C(=O)O)[C@@H](C)O)C(=O)NCC(=O)N[C@@H](CCCNC(=N)N)C(=O)N[C@@H](CC(C)C)C(=O)N[C@@H](CO)C(=O)N[C@@H](C)C(=O)N[C@@H](CCC(=O)O)C(=O)N[C@@H](CC(C)C)C(=O)N[C@@H](Cc1cnc[nH]1)C(=O)N[C@@H](CCC(=O)O)C(=O)N[C@@H](CC(C)C)C(=O)N[C@@H](CO)C(=O)N[C@H](C(=O)N[C@@H](Cc1ccc(O)cc1)C(=O)N1CCC[C@H]1C(=O)N[C@@H](CCCNC(=N)N)C(=O)N[C@H](C(=O)N[C@@H](CCC(=O)O)C(=O)N[C@H](C(=O)NCC(=O)N[C@@H](CO)C(=O)NCC(=O)N[C@@H](CO)C(=O)N1CCC[C@H]1C(N)=O)[C@@H](C)O)[C@@H](C)O)[C@@H](C)O` [compound 82, [N-terminal(C20 diacid-gGlu), des1, 21S, 23Y, 30S, 31G]mimylin] ({C20 diacid-γGlu}-ASELSTAALGRLSAELHELSTYPRTETGSGSP-NH2): the Solubility entry is “≧200 μM” (pH 3.0); “≧200 μM” (pH 4.0); “≧200 μM” (pH 6.0); “≧200 μM” (pH 6.5); “≧200 μM” (pH 7.0); “≧200 μM” (pH 7.5). For the same compound, where the note is “pH 8.0”, the Solubility result is given as “≧200 μM”. For the setting “pH 5.0”, the solubility at 18 h turned out to be 1 µM (≈ 3.74 µg/mL).

For the compound `CC(C)C[C@H](NC(=O)[C@H](C)NC(=O)[C@H](C)NC(=O)[C@@H](NC(=O)[C@H](CO)NC(=O)[C@H](CC(C)C)NC(=O)[C@H](CCC(=O)O)NC(=O)[C@H](CO)NC(=O)[C@H](C)NC(=O)CC[C@H](NC(=O)CCCCCCCCCCCCCCCCCCC(=O)O)C(=O)O)[C@@H](C)O)C(=O)NCC(=O)N[C@@H](CCCNC(=N)N)C(=O)N[C@@H](CC(C)C)C(=O)N[C@@H](CO)C(=O)N[C@@H](CCC(=O)O)C(=O)N[C@@H](CCC(=O)O)C(=O)N[C@@H](CC(C)C)C(=O)N[C@@H](Cc1cnc[nH]1)C(=O)N[C@@H](CCC(=O)O)C(=O)N[C@@H](CC(C)C)C(=O)N[C@@H](C)C(=O)N[C@H](C(=O)N[C@@H](CC(C)C)C(=O)N1CCC[C@H]1C(=O)N[C@@H](CCCNC(=N)N)C(=O)N[C@H](C(=O)N[C@@H](CCC(=O)O)C(=O)N[C@H](C(=O)NCC(=O)N[C@@H](CO)C(=O)NCC(=O)N[C@@H](CO)C(=O)N1CCC[C@H]1C(N)=O)[C@@H](C)O)[C@@H](C)O)[C@@H](C)O` [compound 66, [N-terminal(C20 diacid-gGlu), des1, 15E, 30S, 31G]mimylin] ({C20 diacid-γGlu}-ASELSTAALGRLSEELHELATLPRTETGSGSP-NH2), the Solubility entry is on record as “≧200 μM” (pH 3.0); “≧200 μM” (pH 4.0); “≧200 μM” (pH 5.0); “≧200 μM” (pH 6.0); “≧200 μM” (pH 6.5); “≧200 μM” (pH 7.0). For the same compound, the Solubility result by setting is: (pH 7.5) “≧200 μM”; (pH 8.0) “≧200 μM”.

On to `CC(C)C[C@H](NC(=O)[C@H](C)NC(=O)[C@H](C)NC(=O)[C@@H](NC(=O)[C@H](CO)NC(=O)[C@H](CC(C)C)NC(=O)[C@H](CCC(=O)O)NC(=O)[C@H](CO)NC(=O)[C@H](C)NC(=O)CC[C@H](NC(=O)CCCCCCCCCCCCCCCCCCC(=O)O)C(=O)O)[C@@H](C)O)C(=O)NCC(=O)N[C@@H](CCCNC(=N)N)C(=O)N[C@@H](CC(C)C)C(=O)N[C@@H](CO)C(=O)N[C@@H](C)C(=O)N[C@@H](CCC(=O)O)C(=O)N[C@@H](CC(C)C)C(=O)N[C@@H](Cc1cnc[nH]1)C(=O)N[C@@H](CCC(=O)O)C(=O)N[C@@H](CC(C)C)C(=O)N[C@@H](C)C(=O)N[C@H](C(=O)N[C@@H](CC(C)C)C(=O)N1CCC[C@H]1C(=O)N[C@@H](Cc1cnc[nH]1)C(=O)N[C@H](C(=O)N[C@@H](CCC(=O)O)C(=O)N[C@H](C(=O)NCC(=O)N[C@@H](CO)C(=O)NCC(=O)N[C@@H](CO)C(=O)N1CCC[C@H]1C(N)=O)[C@@H](C)O)[C@@H](C)O)[C@@H](C)O` [compound 73, [N-terminal(C20 diacid-gGlu), des1, 25H, 30S, 31G]mimylin] ({C20 diacid-γGlu}-ASELSTAALGRLSAELHELATLPHTETGSGSP-NH2), for which the Solubility entry is, setting by setting: (pH 3.0) “≧200 μM”; (pH 4.0) “≧200 μM”; (pH 5.0) “≧200 μM”; (pH 6.0) “≧200 μM”; (pH 6.5) “≧200 μM”; (pH 7.0) “≧200 μM”. For the same compound, the Solubility result runs as follows: (pH 7.5) “≧200 μM”; (pH 8.0) “≧200 μM”.

(Values after US9593149B2, “Amylin and calcitonin receptor agonist” (Novo Nordisk A/S, priority 2014, dated 2017).)
